Data as given in patent publication US11225477B2, “Inhibitors of influenza virus replication, application methods and uses thereof” (SUNSHINE LAKE PHARMA CO., LTD., priority 2015, dated 2022).

Experiments:
[1] = tested on: virus H1N1 A/Weiss/43; test: microbe, parasite or virus in culture; format: cell-based; conditions: Influenza A virus, 120 h; MDCK cells, H1N1 A/Weiss/43, Scheme 2: 8 concentrations 50 nM to 0.023 nM, 5 days, CCK-8
[2] = SD, rat, in vivo; for F: po, 5 mg/kg
Procedure: (§1) The compounds disclosed herein were administered in form of a saline solution containing 5% DMSO, 5% Kolliphor HS 15 and 90% Saline. […] Plasma samples were collected and stored at −20° C. or −70° C. until LC/MS/MS analysis.

[3] = in vivo; conditions: SD, rat
Procedure: as §1

Structure (SMILES) | EC50 [1] [nM] | F [2] [%] | AUC(0-inf) ([3]; iv, 1 mg/kg) [µg·h/mL] | AUC(0-t) ([3]; iv, 1 mg/kg) [µg·h/mL] | Cmax ([3]; iv, 1 mg/kg) [µg/mL] | Tmax ([3]; iv, 1 mg/kg) [h] | Vd ([3]; iv, 1 mg/kg) [L/kg] | clearance ([3]; iv, 1 mg/kg) [L/h/kg] | half-life ([3]; iv, 1 mg/kg) [h] | AUC(0-inf) ([3]; po, 5 mg/kg) [µg·h/mL] | AUC(0-t) ([3]; po, 5 mg/kg) [µg·h/mL] | Cmax ([3]; po, 5 mg/kg) [µg/mL] | Tmax ([3]; po, 5 mg/kg) [h] | half-life ([3]; po, 5 mg/kg) [h] | CL ([2]; iv, 1 mg/kg) [L/h/kg]
O=C(O)C1C2CCC(CC2)C1Nc1cc(-c2cc3ccccc3s2)nc(-c2c[nH]c3ncc(F)cc23)n1 (racemic) [Example 17, (+/−)-trans-3-((6-(benzo[b]thiophen-2-yl)-2-(5-fluoro-1H-pyrrolo[2,3-b]pyridin-3-yl)pyrimidin-4-yl)amino)bicyclo[2.2.2]octane-2-carboxylic Acid] | 0.54 | 66.4 | 2.52 | 2.51 | 4.42 | 0.083 | 1.49 | 0.397 | 1.12 | 8.36 | 8.27 | 2.66 | 0.5 | 0.911 | –
O=C(O)C1C2CCC(CC2)C1Nc1nc(-c2c[nH]c3ncc(F)cc23)ncc1F (racemic) [Control VX-787 (racemization), (+/−)-trans-3-((5-fluoro-2-(5-fluoro-1H-pyrrolo[2,3-b]pyridin-3-yl)pyrimidin-4-yl)amino)bicyclo[2.2.2]octane-2-carboxylic acid, reference compound] | – | 58.4 | – | – | – | – | – | – | – | – | – | – | – | – | –
CC(C)n1ccc2c(NC3C4CCC(CC4)C3C(=O)O)nc(-c3c[nH]c4ncc(F)cc34)nc21 (racemic) [Example 25, (+/−)-trans-3-((2-(5-fluoro-1H-pyrrolo[2,3-b]pyridin-3-yl)-7-isopropyl-7H-pyrrolo[2,3-d]pyrimidin-4-yl)amino)bicyclo[2.2.2]octane-2-carboxylic Acid] | 0.26 | – | – | – | – | – | – | – | – | – | – | – | – | – | –
O=C(O)C1C2CCC(CC2)C1Nc1nc(-c2c[nH]c3ncc(F)cc23)nc(C#Cc2ccccc2)c1F (racemic) [Example 63, (+/−)-trans-3-((5-fluoro-2-(5-fluoro-1H-pyrrolo[2,3-b]pyridin-3-yl)-6-phenylethynyl)pyrimidin-4-yl)amino)bicyclo[2.2.2]octane-2-carboxylic Acid] | – | 65 | 4.75 | 4.71 | 4.99 | 0.083 | 0.416 | 0.213 | 3.85 | 15.4 | 15.3 | 3.28 | 2 | 3.59 | –
O=C(O)[C@H]1C2CCC(CC2)[C@@H]1Nc1cc(-c2ccco2)nc(-c2c[nH]c3nc(F)ccc23)n1 [Example 73, (2S,3S)-3-((2-(6-fluoro-1H-pyrrolo[2,3-b]pyridin-3-yl)-6-(furan-2-yl)pyrimidin-4-yl)amino)bicyclo[2.2.2]octane-2-carboxylic Acid] | – | 42.6 | 24.8 | 24.2 | 14.8 | 0.083 | 0.212 | 0.0409 | 1.41 | 52.8 | 50.6 | 9.3 | 1.5 | 5.58 | –
O=C(O)C1C2CCC(CC2)C1Nc1nc(-c2c[nH]c3ncc(F)cc23)nc(-c2ccco2)c1F (racemic) [Example 49, (+/−)-trans-3-((5-fluoro-2-(5-fluoro-1H-pyrrolo[2,3-b]pyridin-3-yl)-6-(furan-2-yl)pyrimidin-4-yl)amino)bicyclo[2.2.2]octane-2-carboxylic Acid] | 0.068 | – | – | – | – | – | – | – | – | – | – | – | – | – | –
O=C(O)C1C2CCC(CC2)C1Nc1cc(-c2ccco2)nc(-c2c[nH]c3ncc(F)cc23)n1 (racemic) [Example 9, (+/−)-trans-3-((2-(5-fluoro-1H-pyrrolo[2,3-b]pyridin-3-yl)-6-(furan-2-yl)pyrimidin-4-yl)amino)bicyclo[2.2.2]octane-2-carboxylic Acid] | 0.066 | 47.5 | 7.35 | 7.26 | 10.9 | 0.083 | 0.551 | – | 1.52 | 17.5 | 17.4 | 5.27 | 0.5 | 3.15 | 5.86
CC(C)n1ccc2c(N[C@H]3C4CCC(CC4)[C@@H]3C(=O)O)nc(-c3c[nH]c4ncc(F)cc34)nc21 [Example 78, (2S,3S)-3-((2-(5-fluoro-1H-pyrrolo[2,3-b]pyridin-3-yl)-7-isopropyl-7H-pyrrolo [2,3-d]pyrimidin-4-yl)amino)bicyclo[2.2.2]octane-2-carboxylic Acid] | 0.236 | – | – | – | – | – | – | – | – | – | – | – | – | – | –
O=C(O)C1C2CCC(CC2)C1Nc1nc(-c2c[nH]c3ncc(F)cc23)nc(-c2cc3ccccc3s2)c1F (racemic) [Example 55, (+/−)-trans-3-((6-(benzo[b]thiophen-2-yl)-5-fluoro-2-(5-fluoro-1H-pyrrolo [2,3-b]pyridin-3-yl)pyrimidin-4-yl)amino)bicyclo[2.2.2]octane-2-carboxylic Acid] | 0.874 | – | – | – | – | – | – | – | – | – | – | – | – | – | –
O=C(O)C1C2CCC(CC2)C1Nc1cc(-c2cccs2)nc(-c2c[nH]c3ncc(F)cc23)n1 (racemic) [Example 23, (+/−)-trans-3-((2-(5-fluoro-1H-pyrrolo[2,3-b]pyridin-3-yl)-6-(thiophen-2-yl)pyrimidin-4-yl)amino)bicyclo[2.2.2]octane-2-carboxylic Acid] | 0.104 | – | – | – | – | – | – | – | – | – | – | – | – | – | –
O=C(O)[C@H]1C2CCC(CC2)C1Nc1cc(-c2ccc([N+](=O)[O-])o2)nc(-c2c[nH]c3ncc(F)cc23)n1 (stereo in doubt) [Example 24a, (2S,3S)-3-((2-(5-fluoro-1H-pyrrolo[2,3-b]pyridin-3-yl)-6-(5-nitrofuran-2-yl)pyrimidin-4-yl)amino)bicyclo[2.2.2]octane-2-carboxylic Acid] | 0.744 | – | – | – | – | – | – | – | – | – | – | – | – | – | –
O=C(O)C1C2CCC(CC2)C1Nc1cc(-c2cc3ccccc3o2)nc(-c2c[nH]c3ncc(F)cc23)n1 (racemic) [Example 16, (+/−)-trans-3-((6-(benzofuran-2-yl)-2-(5-fluoro-1H-pyrrolo[2,3-b]pyridin-3-yl)pyrimidin-4-yl)amino)bicyclo[2.2.2]octane-2-carboxylic Acid] | 0.54 | – | – | – | – | – | – | – | – | – | – | – | – | – | –
CC(C)(C)[C@@H](CC(=O)O)Nc1nc(-c2c[nH]c3ncc(F)cc23)nc(-c2ccco2)c1F [Example 61, (R)-3-((5-fluoro-2-(5-fluoro-1H-pyrrolo[2,3-b]pyridin-3-yl)-6-(furan-2-yl)pyrimidin-4-yl)amino)-4,4-dimethylpentanoic Acid] | – | 53.1 | 4.05 | 4.03 | 8.54 | 0.083 | 0.585 | 0.25 | 0.542 | 10.7 | 10.4 | 2.71 | 1.5 | 5.95 | –
O=C(O)C1C2CCC(CC2)C1Nc1cc(C2CC2)nc(-c2c[nH]c3ncc(F)cc23)n1 (racemic) [Example 68, (+/−)-trans-3-((6-cyclopropyl-2-(5-fluoro-1H-pyrrolo[2,3-b]pyridin-3-yl)pyrimidin-4-yl)amino)bicyclo[2.2.2]octane-2-carboxylic Acid] | – | 60.1 | 2.88 | 2.76 | 3.75 | 0.083 | 0.551 | 0.352 | 2.01 | 8.33 | 8.31 | 2.96 | 0.417 | 3.24 | –
O=C(O)C1C2CCC(CC2)C1Nc1nc(-c2c[nH]c3ncc(F)cc23)nc(-c2cc3ccccc3o2)c1F (racemic) [Example 54, (+/−)-trans-3-((6-(benzofuran-2-yl)-5-fluoro-2-(5-fluoro-1H-pyrrolo[2,3-b]pyridin-3-yl)pyrimidin-4-yl)amino)bicyclo[2.2.2]octane-2-carboxylic Acid] | 0.261 | – | – | – | – | – | – | – | – | – | – | – | – | – | –
Cc1nc2[nH]cc(-c3nc(NC4C5CCC(CC5)C4C(=O)O)cc(-c4ccccc4)n3)c2cc1F (racemic) [Example 80, (+/−)-trans-3-((2-(5-fluoro-6-methyl-1H-pyrrolo[2,3-b]pyridin-3-yl)-6-phenylpyrimidin-4-yl)amino)bicyclo[2.2.2]octane-2-carboxylic Acid] | – | 62.5 | 3.38 | 3.32 | 5.63 | 0.083 | 1.5 | 0.296 | 1.53 | 10.6 | 10.1 | 3.13 | 0.833 | 1.48 | –
O=C(O)C1C2CCC(CC2)C1Nc1cc(-c2cccc3c2oc2ccccc23)nc(-c2c[nH]c3ncc(F)cc23)n1 (racemic) [Example 18, (+/−)-trans-3-((6-(dibenzo[b,d]furan-4-yl)-2-(5-fluoro-1H-pyrrolo[2,3-b]pyridin-3-yl)pyrimidin-4-yl)amino)bicyclo[2.2.2]octane-2-carboxylic Acid] | – | 43.1 | 3.19 | 3.13 | 4.47 | 0.083 | 0.598 | 0.318 | 4.37 | 6.88 | 6.84 | 1.69 | 2 | 3.71 | –
O=C(O)[C@H]1C2CCC(CC2)C1Nc1cc(-c2ccco2)nc(-c2c[nH]c3ncc(F)cc23)n1 (stereo in doubt) [Example 9a, (2S,3S)-3-((2-(5-fluoro-1H-pyrrolo[2,3-b]pyridin-3-yl)-6-(furan-2-yl)pyrimidin-4-yl)amino)bicyclo[2.2.2]octane-2-carboxylic Acid] | 0.039 | – | – | – | – | – | – | – | – | – | – | – | – | – | –
O=C(O)[C@H]1C2CCC(CC2)C1Nc1cc(-c2ccccc2)nc(-c2c[nH]c3ncc(F)cc23)n1 (stereo in doubt) [Example 4a, (2S,3S)-3-((2-(5-fluoro-1H-pyrrolo[2,3-b]pyridin-3-yl)-6-phenylpyrimidin-4-yl)amino)bicyclo[2.2.2]octane-2-carboxylic Acid] | 0.17 | – | – | – | – | – | – | – | – | – | – | – | – | – | –
